This is an account of results in doi:10.1101/2022.07.06.498982v1 (biorxiv, 2022).

What is called Kd is a measure of binding affinity in units of concentration.

The target of assay [1] is soluble recombinant human TLR4 (hTLR4) (Homo sapiens, UniProt O00206). In words: biochemical.
In assay [2] the target is soluble recombinant mouse TLR4 (mTLR4) (Mus musculus, UniProt Q9QUK6). As to the kind of experiment: biochemical.
Chain of soluble recombinant mouse TLR4 (mTLR4) (Q9QUK6 26-638 limits assumed): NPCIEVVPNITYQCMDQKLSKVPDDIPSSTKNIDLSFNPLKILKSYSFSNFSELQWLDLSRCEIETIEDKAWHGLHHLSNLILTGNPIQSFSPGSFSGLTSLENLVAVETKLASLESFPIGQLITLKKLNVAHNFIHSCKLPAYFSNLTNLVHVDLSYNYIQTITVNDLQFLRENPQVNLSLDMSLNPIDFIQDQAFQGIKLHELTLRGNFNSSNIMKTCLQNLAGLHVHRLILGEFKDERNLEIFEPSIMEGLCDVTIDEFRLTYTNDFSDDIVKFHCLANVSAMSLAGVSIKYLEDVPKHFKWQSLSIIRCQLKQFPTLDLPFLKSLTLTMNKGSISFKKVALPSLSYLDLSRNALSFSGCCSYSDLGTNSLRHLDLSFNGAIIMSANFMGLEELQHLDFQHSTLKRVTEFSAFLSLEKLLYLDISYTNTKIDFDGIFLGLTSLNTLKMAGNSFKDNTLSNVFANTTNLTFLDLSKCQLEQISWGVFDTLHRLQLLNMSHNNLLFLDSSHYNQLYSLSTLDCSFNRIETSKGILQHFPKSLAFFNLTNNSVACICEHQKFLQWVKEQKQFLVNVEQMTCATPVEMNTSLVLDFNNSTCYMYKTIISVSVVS

Chain of soluble recombinant human TLR4 (hTLR4) (O00206 24-631 limits assumed): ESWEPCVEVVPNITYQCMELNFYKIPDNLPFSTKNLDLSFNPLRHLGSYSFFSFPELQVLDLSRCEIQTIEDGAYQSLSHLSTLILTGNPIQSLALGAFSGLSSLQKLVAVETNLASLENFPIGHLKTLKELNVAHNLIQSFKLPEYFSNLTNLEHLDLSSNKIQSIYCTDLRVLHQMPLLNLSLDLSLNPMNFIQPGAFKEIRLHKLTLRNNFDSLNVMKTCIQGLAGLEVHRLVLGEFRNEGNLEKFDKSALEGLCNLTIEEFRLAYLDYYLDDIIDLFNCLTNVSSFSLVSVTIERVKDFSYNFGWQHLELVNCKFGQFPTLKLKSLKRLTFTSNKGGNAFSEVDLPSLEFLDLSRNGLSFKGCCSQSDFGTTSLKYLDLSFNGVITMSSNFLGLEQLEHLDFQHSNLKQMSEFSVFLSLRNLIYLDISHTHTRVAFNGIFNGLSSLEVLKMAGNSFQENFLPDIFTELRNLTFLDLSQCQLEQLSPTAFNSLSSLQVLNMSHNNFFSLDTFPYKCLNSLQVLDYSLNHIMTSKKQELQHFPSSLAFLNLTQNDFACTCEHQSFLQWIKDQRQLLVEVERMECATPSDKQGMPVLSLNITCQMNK

Consider `[NH2][Pt]([NH2])([Cl])[Cl]` [cisplatin], for which the Kd in assay [1] stood at 100 µM; in assay [2] it was 134 µM.
